{
  "source": "paper PMC6028453",
  "about": "“BrlR from Pseudomonas aeruginosa is a receptor for both cyclic di-GMP and pyocyanin” (Nature Communications, 2018)",
  "key": {"BrlR mutant D35A": {"target": "T1, BrlR mutant D35A (Pseudomonas aeruginosa, UniProt Q9HUT5, D35A)", "T1 construct": "His6-SUMO (N, cleaved yes); made in house; host or cells: E. coli BL21 DE3", "T1 sequence (Q9HUT5 whole entry D35A)": "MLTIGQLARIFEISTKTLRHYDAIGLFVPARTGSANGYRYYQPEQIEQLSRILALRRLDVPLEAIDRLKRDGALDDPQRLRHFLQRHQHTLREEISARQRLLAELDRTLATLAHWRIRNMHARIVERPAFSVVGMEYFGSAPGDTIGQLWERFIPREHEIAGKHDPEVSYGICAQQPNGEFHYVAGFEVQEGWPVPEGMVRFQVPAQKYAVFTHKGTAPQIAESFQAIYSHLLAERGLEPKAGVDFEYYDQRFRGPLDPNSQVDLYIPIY", "test": "FP binding assay, BrlR D35A", "procedure": "F-c-di-GMP and F-c-di-AMP both contain a fluorophore at one of the 2′-ribose hydroxyls of c-di-GMP and c-di-AMP, respectively (Fig. 2f). To measure the binding of c-di-GMP and c-di-AMP to BrlR variants, 1 nM F-c-di-GMP or F-c-di-AMP was incubated with increasing amounts of indicated BrlR WT, BrlR mutation, or BrlR-C in reaction buffer (25 mM HEPES, 100 mM NaCl, pH 7.5) at 25 °C for 20 min. 1 nM fluorescein was incubated with BrlR WT in the same reaction buffer at 25 °C. FP measurements were conducted on a Synergy 4 Microplate Reader (BioTek) at 25 °C. All experiments were performed in triplicate. The curves were fitted to deduce binding affinities by GraphPad Prism 5.\nBrlR–c-di-GMPs interactions in two separate c-di-GMP binding sites\nIn the first binding site, c-di-GMP is half accommodated by the antiparallel β-sheet and two residues (M1 and D35). In detail, the backbone amide protons of the first M1 residue form a hydrogen bond (H-bond) with the phosphate oxygen atom of c-di-GMP, and the side chain of R31 forms two H-bonds with the Gua1 base. The residue D35 also forms an H-bond with the Gua1 base. The aromatic ring of Y40 interacts with the Gua1 base through a hydrophobic π-π interaction. In addition, the hydroxyl group of the Y270 side chain from another subunit interacts with the phosphate 2 of c-di-GMP via an H-bond (Fig. 2d). […]"}, "BrlR-DNA binding (PbrlR)": {"target": "T2, BrlR-DNA binding (PbrlR) (Pseudomonas aeruginosa, UniProt Q9HUT5)", "T2 construct": "His6-SUMO (N, cleaved yes); made in house; host or cells: E. coli BL21 DE3", "test": "EMSA, wild-type BrlR with PbrlR DNA", "assay_type": "biochemical", "procedure": "(§1) A 6-carboxy-fluorescein (FAM)-labeled 36-bp brlR promoter DNA (PbrlR) or 80-bp mexA/mexE promoter DNA (PmexA/PmexE) probes (~0.375 pmol), BrlR protein and varying amounts of inducers were incubated in binding buffer (10 mM Tris HCl [pH 7.4], 50 mM KCl, 1 mM DTT, […] and 5 ng/mL poly [dI-dC]) for 60 min at 25 °C. Finally, glycerol was added to a concentration of 6.5%. The samples were subjected to a 5% polyacrylamide gel electrophoresis and run in 0.5 × Tris-borate-EDTA buffer at 80 V for 1 h at room temperature. Imaging and data analyses were performed using a Typhoon Scanner (GE Healthcare) and Imagequant software. The probes used are listed in Supplementary Table 1."}, "C2E mut2 DNA binding": {"target": "T3, C2E mut2 DNA binding (Pseudomonas aeruginosa, UniProt Q9HUT5, R67A/R86A)", "T3 construct": "His6-SUMO (N, cleaved yes); made in house; host or cells: E. coli BL21 DE3", "T3 sequence (Q9HUT5 whole entry R67A/R86A)": "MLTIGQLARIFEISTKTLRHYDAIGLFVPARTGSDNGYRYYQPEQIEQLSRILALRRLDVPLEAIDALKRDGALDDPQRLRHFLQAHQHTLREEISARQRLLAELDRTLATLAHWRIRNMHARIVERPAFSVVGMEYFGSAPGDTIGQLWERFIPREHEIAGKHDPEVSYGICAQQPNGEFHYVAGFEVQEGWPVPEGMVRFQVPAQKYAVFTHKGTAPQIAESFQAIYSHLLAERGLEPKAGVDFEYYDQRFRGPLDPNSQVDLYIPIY", "test": "EMSA, C2E mut2 with PbrlR DNA", "assay_type": "biochemical", "procedure": "as §1"}, "[1]": {"target": "T4, C2E mut3 (R31A/D35A/Y40A/R67A/R86A/Y270A) DNA binding (Pseudomonas aeruginosa, UniProt Q9HUT5, D35A/R31A/R67A/R86A/Y270A/Y40A)", "T4 construct": "His6-SUMO (N, cleaved yes); made in house; host or cells: E. coli BL21 DE3", "T4 sequence (Q9HUT5 whole entry R31A/D35A/Y40A/R67A/R86A/Y270A)": "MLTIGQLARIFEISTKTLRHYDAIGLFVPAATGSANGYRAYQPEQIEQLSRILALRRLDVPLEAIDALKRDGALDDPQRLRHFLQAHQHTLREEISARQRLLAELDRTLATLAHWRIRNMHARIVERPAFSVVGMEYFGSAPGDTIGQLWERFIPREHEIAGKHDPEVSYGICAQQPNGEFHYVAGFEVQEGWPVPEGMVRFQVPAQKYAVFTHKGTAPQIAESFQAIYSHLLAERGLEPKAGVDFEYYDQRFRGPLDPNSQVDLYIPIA", "test": "EMSA, C2E mut3", "assay_type": "biochemical", "procedure": "as §1"}, "BrlR R86A DNA binding": {"target": "T5, BrlR R86A DNA binding (Pseudomonas aeruginosa, UniProt Q9HUT5, R86A)", "T5 construct": "His6-SUMO (N, cleaved yes); made in house; host or cells: E. coli BL21 DE3", "T5 sequence (Q9HUT5 whole entry R86A)": "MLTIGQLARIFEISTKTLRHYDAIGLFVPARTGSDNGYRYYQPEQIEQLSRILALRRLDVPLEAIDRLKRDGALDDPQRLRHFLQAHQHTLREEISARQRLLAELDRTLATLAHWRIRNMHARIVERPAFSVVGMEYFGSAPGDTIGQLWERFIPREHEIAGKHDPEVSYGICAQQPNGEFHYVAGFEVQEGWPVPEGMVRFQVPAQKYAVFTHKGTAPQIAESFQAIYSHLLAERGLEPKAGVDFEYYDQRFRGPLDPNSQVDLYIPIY", "test": "EMSA, BrlR R86A", "assay_type": "biochemical", "procedure": "as §1"}, "BrlR D35A DNA binding": {"target": "T6, BrlR D35A DNA binding (Pseudomonas aeruginosa, UniProt Q9HUT5, D35A)", "T6 construct": "His6-SUMO (N, cleaved yes); made in house; host or cells: E. coli BL21 DE3", "T6 sequence (Q9HUT5 whole entry D35A)": "as the sequence (Q9HUT5 whole entry D35A) above", "test": "EMSA, BrlR D35A", "assay_type": "biochemical", "procedure": "as §1"}, "[2]": {"system": "brlR promoter activity (C2E mut1)", "test": "β-galactosidase assay, C2E mut1", "assay_type": "cell-based, Pseudomonas aeruginosa", "procedure": "(§2) We also performed β-galactosidase activity assays using a PbrlR-brlR-lacZ reporter construct to investigate the transcriptional function of BrlR mutants in vivo. […] To confirm the effect of c-di-GMP in P. aeruginosa, we carried out real-time quantitative PCR analyses. Following a previous report, we introduced the diguanylate cyclase PA4843 into a WT P. aeruginosa strain carrying either pHERD20T-empty or pHERD20T-PA4843. The transcription level of brlR was analyzed using the brlR 5 F and brlR 3 R primers (Supplementary Table 1). The transcriptional level of brlR in pHERD20T-PA4843 strain is 4.5 ± 1.3-fold higher than that in the pHERD20T-empty strain (Fig. 4h).\n(§3) β-galactosidase activity was assayed with P. aeruginosa PA01 ΔbrlR strain carrying plasmid pME6522-borne transcriptional lacZ fusions. P. aeruginosa carrying the empty vector was used as the […]. The reporter plasmids are derivatives of the pME6522 plasmid in which multiple cloning sites were inserted before the LacZ with the promoter and coding regions of brlR with diverse mutations. These reporter plasmids were transformed into the reporter strain. Overnight cultures were diluted 20-fold with LB medium supplemented with appropriate antibiotics. […]"}, "[3]": {"system": "brlR promoter activity (C2E mut3)", "test": "β-galactosidase assay, C2E mut3", "assay_type": "cell-based, Pseudomonas aeruginosa", "procedure": "as §2, §3"}},
  "data": [
    {"compound": "Nc1nc2c(ncn2[C@@H]2O[C@@H]3COP(=O)(O)O[C@H]4[C@@H](O)[C@H](n5cnc6c(=O)[nH]c(N)nc65)O[C@@H]4COP(=O)(O)O[C@H]3[C@H]2O)c(=O)[nH]1", "note": "[c-di-GMP, cyclic diguanylate monophosphate]", "values": [
      {"measurement": "Kd", "setting": "BrlR mutant D35A", "value": "17.5 ± 0.9", "unit": "µM"},
      {"measurement": "effect of c-di-GMP and pyocyanin together on BrlR-DNA binding", "setting": "BrlR-DNA binding (PbrlR); PbrlR, c-di-GMP, pyocyanin, and both", "value": "cooperatively enhance"},
      {"measurement": "BrlR-DNA complex in the presence vs absence of c-di-GMP", "setting": "BrlR-DNA binding (PbrlR); wild-type BrlR, band densitometry", "value": 5.5, "unit": "fold"},
      {"measurement": "effect on BrlR-PbrlR DNA binding (in words)", "setting": "BrlR-DNA binding (PbrlR); wild-type BrlR, increasing concentrations of compound", "value": "significantly promoted"},
      {"measurement": "BrlR-DNA complex in the presence vs absence of c-di-GMP", "setting": "C2E mut2 DNA binding", "value": 1.9, "unit": "fold"},
      {"measurement": "effect of c-di-GMP on DNA binding", "setting": "[1]", "value": "did not have any effect"},
      {"measurement": "DNA bound in the presence vs absence of c-di-GMP", "setting": "BrlR R86A DNA binding", "value": "~ 1.5 fold"},
      {"measurement": "DNA bound in the presence vs absence of c-di-GMP", "setting": "BrlR D35A DNA binding", "value": "~ 4.8 fold"},
      {"measurement": "increase at high vs low c-di-GMP concentration (β-galactosidase activity)", "setting": "[2]", "value": 2.0, "unit": "fold"},
      {"measurement": "response of β-galactosidase activity to increase in c-di-GMP concentration", "setting": "[3]", "value": "no response"}
    ]}
  ]
}
